What is called pIC50 is −log10 of the IC50, conventionally taken in molar units.

Molecules are shown by their SMILES. pIC50: −log10 of the molar value.

What all share (assay): Ras-Raf disruption / FRET / MOA assay (BRAF RBD)
Holding throughout (format): biochemical

Assay [1] concerns the target KRAS G12C (Homo sapiens, UniProt P01116+P62937, G12C). Particulars: Ras-Raf disruption, with Cyclophilin A; read-out: KRAS G12C FRET data IC50. In short, it runs like this:
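His6-K-Ras G12C-GMPPNP (12.5 nM), GST-BRAF RBD (50 nM) and tagless Cyclophilin A (25 μM) incubated 3 h at 25 °C with compound (10-point 3-fold series from 30 μM), pH 7.3 HEPES buffer. Anti-His Eu/anti-GST APC added for 1.5 h; decreased TR-FRET ratio vs DMSO gives IC50.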

For assay [2], the target named is KRAS G12D (Homo sapiens, UniProt P01116+P62937, G12D). Particulars: Ras-Raf disruption, with Cyclophilin A; read-out: KRAS G12D FRET data IC50. In short, it runs like this:
(§1)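 TR-FRET in 25 mM HEPES pH 7.3, 100 mM NaCl, 5 mM MgCl2, 0.1% BSA, 0.002% Tween20 with 25 μM Cyclophilin A, 12.5 nM His6-Ras-GMPPNP, 50 nM GST-BRAF RBD; compound 10-point 3-fold series from 30 μM. After 3 h at 25 °C, Eu anti-His/APC anti-GST added for 1.5 h; IC50 from ratio decrease versus DMSO.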

Assay [3] concerns the target NRAS G12C (Homo sapiens, UniProt P01111+P62937, G12C). Conditions: NRAS G12C; read-out: NRAS G12C FRET data IC50. Summed up: as §1
In assay [4] the target is KRAS WT (Homo sapiens, UniProt P01116+P62937). Particulars: Ras-Raf disruption, with Cyclophilin A; read-out: KRAS WT FRET data IC50. In short, it runs like this:
as §1

For assay [5], the target named is NRAS Q61R (Homo sapiens, UniProt P01111+P62937, Q61R). Particulars: NRAS Q61R; read-out: NRAS Q61R FRET data IC50. In short, it runs like this:
as §1

Assay [6] concerns the target KRAS G13C (Homo sapiens, UniProt P01116+P62937, G13C). Particulars: Ras-Raf disruption, with Cyclophilin A; read-out: KRAS G13C FRET data IC50. In short, it runs like this: as §1
Assay [7] deals with KRAS G12S (Homo sapiens, UniProt P01116+P62937, G12S). Particulars: Ras-Raf disruption, with Cyclophilin A; read-out: KRAS G12S FRET data IC50. In short, it runs like this:
as §1

Assay [8] deals with KRAS G13D (Homo sapiens, UniProt P01116+P62937, G13D). Conditions: Ras-Raf disruption, with Cyclophilin A; read-out: KRAS G13D FRET data IC50. Summed up:
as §1

The target of assay [9] is NRAS Q61K (Homo sapiens, UniProt P01111+P62937, Q61K). Conditions: NRAS Q61K; read-out: NRAS Q61K FRET data IC50. Summed up: as §1
Sequence of NRAS Q61K (P01111 whole entry Q61K): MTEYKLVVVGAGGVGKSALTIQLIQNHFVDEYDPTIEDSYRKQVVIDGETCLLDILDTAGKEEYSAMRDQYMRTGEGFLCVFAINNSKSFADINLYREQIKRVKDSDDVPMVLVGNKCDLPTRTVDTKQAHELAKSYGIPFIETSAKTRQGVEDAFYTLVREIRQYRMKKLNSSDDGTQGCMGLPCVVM
Sequence of NRAS Q61K (P62937 whole entry): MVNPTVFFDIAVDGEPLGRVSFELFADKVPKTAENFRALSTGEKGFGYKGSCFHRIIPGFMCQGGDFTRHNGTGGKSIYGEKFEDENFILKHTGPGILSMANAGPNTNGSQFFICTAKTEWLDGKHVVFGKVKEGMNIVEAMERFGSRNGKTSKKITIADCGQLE
Assay [10] has as its target KRAS G12V (Homo sapiens, UniProt P01116+P62937, G12V). Conditions: Ras-Raf disruption, with Cyclophilin A; read-out: KRAS G12V FRET data IC50. In short, it runs like this:
as §1

For assay [11], the target named is KRAS Q61H (Homo sapiens, UniProt P01116+P62937, Q61H). Conditions: KRAS Q61H; read-out: KRAS Q61H FRET data IC50. In short, it runs like this:
as §1

The target of assay [12] is NRAS WT (Homo sapiens, UniProt P01111+P62937). Conditions: NRAS WT; read-out: NRAS WT FRET data IC50. In short, it runs like this:
as §1

Sequence of KRAS Q61H (P01116 1-169 isoform P01116-2 Q61H limits assumed): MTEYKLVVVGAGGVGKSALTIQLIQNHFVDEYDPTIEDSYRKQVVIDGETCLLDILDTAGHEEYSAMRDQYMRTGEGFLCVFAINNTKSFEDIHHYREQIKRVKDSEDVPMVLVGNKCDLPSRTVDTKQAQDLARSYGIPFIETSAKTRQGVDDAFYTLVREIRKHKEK
Sequence of KRAS Q61H (P62937 whole entry): as the sequence (P62937 whole entry) above
Sequence of KRAS G12D (P01116 1-169 isoform P01116-2 G12D limits assumed): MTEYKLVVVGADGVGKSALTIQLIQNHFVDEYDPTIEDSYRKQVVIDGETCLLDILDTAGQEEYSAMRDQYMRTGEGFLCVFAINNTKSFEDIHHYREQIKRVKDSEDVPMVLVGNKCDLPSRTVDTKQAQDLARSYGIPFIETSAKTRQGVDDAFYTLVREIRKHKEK
Sequence of KRAS G12D (P62937 whole entry): as the sequence (P62937 whole entry) above
Sequence of NRAS WT (P01111 whole entry): as the sequence (P01111 whole entry Q61K) above, with K61Q counted along it
Sequence of NRAS WT (P62937 whole entry): as the sequence (P62937 whole entry) above
Sequence of KRAS G13D (P01116 1-169 isoform P01116-2 G13D limits assumed): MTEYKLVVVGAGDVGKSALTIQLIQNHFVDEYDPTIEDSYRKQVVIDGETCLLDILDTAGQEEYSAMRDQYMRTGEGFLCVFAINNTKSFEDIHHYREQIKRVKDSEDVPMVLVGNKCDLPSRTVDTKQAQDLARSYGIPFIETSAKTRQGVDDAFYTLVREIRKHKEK
Sequence of KRAS G13D (P62937 whole entry): as the sequence (P62937 whole entry) above
Sequence of KRAS WT (P01116 1-169 isoform P01116-2 limits assumed): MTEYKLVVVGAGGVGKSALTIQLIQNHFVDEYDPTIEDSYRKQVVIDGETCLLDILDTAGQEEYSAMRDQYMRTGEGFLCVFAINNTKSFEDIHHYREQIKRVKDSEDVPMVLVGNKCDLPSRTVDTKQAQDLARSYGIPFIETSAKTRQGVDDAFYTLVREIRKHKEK
Sequence of KRAS WT (P62937 whole entry): as the sequence (P62937 whole entry) above
Sequence of KRAS G12V (P01116 1-169 isoform P01116-2 G12V limits assumed): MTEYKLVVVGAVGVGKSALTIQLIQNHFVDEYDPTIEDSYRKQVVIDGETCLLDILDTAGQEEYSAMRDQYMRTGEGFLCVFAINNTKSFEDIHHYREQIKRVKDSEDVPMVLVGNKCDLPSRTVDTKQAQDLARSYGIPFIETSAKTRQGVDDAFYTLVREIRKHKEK
Sequence of KRAS G12V (P62937 whole entry): as the sequence (P62937 whole entry) above
Sequence of KRAS G12S (P01116 1-169 isoform P01116-2 G12S limits assumed): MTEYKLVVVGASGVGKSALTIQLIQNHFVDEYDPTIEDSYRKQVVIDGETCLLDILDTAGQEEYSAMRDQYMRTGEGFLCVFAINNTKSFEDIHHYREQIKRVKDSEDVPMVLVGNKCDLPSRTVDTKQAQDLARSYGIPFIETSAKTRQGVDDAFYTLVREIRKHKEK
Sequence of KRAS G12S (P62937 whole entry): as the sequence (P62937 whole entry) above
Sequence of KRAS G12C (P01116 1-169 isoform P01116-2 G12C limits assumed): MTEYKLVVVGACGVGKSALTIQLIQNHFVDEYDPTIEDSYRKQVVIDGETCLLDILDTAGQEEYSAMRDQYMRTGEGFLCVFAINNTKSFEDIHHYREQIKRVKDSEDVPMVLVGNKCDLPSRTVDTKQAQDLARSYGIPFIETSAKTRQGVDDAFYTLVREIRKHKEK
Sequence of KRAS G12C (P62937 whole entry): as the sequence (P62937 whole entry) above
Sequence of KRAS G13C (P01116 1-169 isoform P01116-2 G13C limits assumed): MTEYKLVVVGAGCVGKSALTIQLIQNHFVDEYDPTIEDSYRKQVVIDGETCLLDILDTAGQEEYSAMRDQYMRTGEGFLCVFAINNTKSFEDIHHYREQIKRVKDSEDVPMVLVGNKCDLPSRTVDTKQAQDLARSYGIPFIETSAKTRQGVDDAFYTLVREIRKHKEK
Sequence of KRAS G13C (P62937 whole entry): as the sequence (P62937 whole entry) above
Sequence of NRAS G12C (P01111 whole entry G12C): as the sequence (P01111 whole entry Q61K) above, with G12C, K61Q counted along it
Sequence of NRAS G12C (P62937 whole entry): as the sequence (P62937 whole entry) above
Sequence of NRAS Q61R (P01111 whole entry Q61R): as the sequence (P01111 whole entry Q61K) above, with K61R counted along it
Sequence of NRAS Q61R (P62937 whole entry): as the sequence (P62937 whole entry) above

Take `CCn1c(-c2cccnc2[C@H](C)OC)c2c3cc(ccc31)-c1csc(n1)C[C@H](NC(=O)[C@H](C(C)C)N(C)C(=O)N1CC(N(C)C(=O)[C@@H]3CN3)C1)C(=O)N1CCC[C@H](N1)C(=O)OCC(C)(C)C2` (atropisomer, axis not shown) [Example 219]: the pIC50 in assay [1] was 6.00 to 7.00; in [2], 5.00 to 6.00; in assay [3], 6.00 to 7.00; in assay [4], 6.00 to 7.00; in assay [5] it was 6.00 to 7.00; in assay [6], 6.00 to 7.00. The pIC50 in assay [7] is 6.00 to 7.00; in [8] it was 6.00 to 7.00; in assay [9], 7.00 to 8.00; in assay [10] it was 6.00 to 7.00; in [11], 6.00 to 7.00; in assay [12] it was 6.00 to 7.00.
Turning to `CCn1c(-c2cccnc2[C@H](C)OC)c2c3cc(ccc31)-c1csc(n1)C[C@H](NC(=O)[C@H](C(C)C)N(C)C(=O)N1CCCN(C(=O)[C@H]3CN3)CC1)C(=O)N1CCC[C@H](N1)C(=O)OCC(C)(C)C2` (atropisomer, axis not shown) [Example 222], the pIC50 in [1] was 7.00 to 8.00; in assay [2], 6.00 to 7.00; in assay [3] it was 7.00 to 8.00; in assay [4], 7.00 to 8.00; in [5] it was 7.00 to 8.00; in assay [6], 6.00 to 7.00. For the same compound, the pIC50 in [7] was 7.00 to 8.00; in assay [8] it was 6.00 to 7.00; in assay [9] it was 7.00 to 8.00; in [10] it was 6.00 to 7.00; in assay [11], 7.00 to 8.00; in assay [12], 7.00 to 8.00.
As to `CCn1c(-c2cccnc2[C@H](C)OC)c2c3cc(ccc31)-c1csc(n1)C[C@H](NC(=O)[C@H](C(C)C)N(C)C(=O)N1CCCN(C(=O)[C@@H]3CN3)CC1)C(=O)N1CCC[C@H](N1)C(=O)OCC(C)(C)C2` (atropisomer, axis not shown) [Example 223], the pIC50 in assay [1] was 7.00 to 8.00; in [2], 6.00 to 7.00; in assay [3], 7.00 to 8.00; in [4], 7.00 to 8.00; in [5], 7.00 to 8.00; in assay [6], 6.00 to 7.00. The pIC50 in [7] was 6.00 to 7.00; in assay [8], 6.00 to 7.00; in [9] it was 7.00 to 8.00; in assay [10] it was 6.00 to 7.00; in assay [11], 7.00 to 8.00; in assay [12], 7.00 to 8.00.
For the compound `CCn1c(-c2cccnc2[C@H](C)OC)c2c3cc(ccc31)-c1csc(n1)C[C@H](NC(=O)[C@H](C(C)C)N(C)C(=O)N1CC(CN(C)C(=O)[C@H]3CN3)C1)C(=O)N1CCC[C@H](N1)C(=O)OCC(C)(C)C2` (atropisomer, axis not shown) [Example 224], the pIC50 is 7.00 to 8.00 in assay [1]; 6.00 to 7.00 in assay [2]; 7.00 to 8.00 in assay [3]; 6.00 to 7.00 in assay [4]; 7.00 to 8.00 in [5]; 6.00 to 7.00 in assay [6]. In addition, the pIC50 in assay [7] was 6.00 to 7.00; in assay [8], 6.00 to 7.00; in assay [9], 7.00 to 8.00; in assay [10], 6.00 to 7.00; in [11], 7.00 to 8.00; in assay [12], 7.00 to 8.00.
In the case of `CCn1c(-c2cccnc2[C@H](C)OC)c2c3cc(ccc31)-c1csc(n1)C[C@H](NC(=O)[C@H](C(C)C)N(C)C(=O)N1CC(CN(C)C(=O)[C@@H]3CN3)C1)C(=O)N1CCC[C@H](N1)C(=O)OCC(C)(C)C2` (atropisomer, axis not shown) [Example 225], the pIC50 in assay [1] was 7.00 to 8.00; in assay [2] it was 6.00 to 7.00; in assay [3] it was 7.00 to 8.00; in assay [4], 6.00 to 7.00; in assay [5], 6.00 to 7.00; in assay [6], 6.00 to 7.00. Further, the negative logarithm of the IC50 (pIC50) is 6.00 to 7.00 in assay [7]; 6.00 to 7.00 in [8]; 7.00 to 8.00 in assay [9]; 6.00 to 7.00 in [10]; 7.00 to 8.00 in assay [11]; 7.00 to 8.00 in [12].
Consider `CCn1c(-c2cccnc2[C@H](C)OC)c2c3cc(ccc31)-c1csc(n1)C[C@H](NC(=O)[C@H](C(C)C)N(C)C(=O)N1CC[C@@H](N(C)C(=O)[C@H]3CN3)C1)C(=O)N1CCC[C@H](N1)C(=O)OCC(C)(C)C2` (atropisomer, axis not shown) [Example 226], for which the pIC50 in assay [1] is 6.00 to 7.00; in assay [2] it was 5.00 to 6.00; in assay [3], 6.00 to 7.00; in [4] it was 6.00 to 7.00; in assay [5], 6.00 to 7.00; in assay [6], 6.00 to 7.00. Besides, the pIC50 in assay [7], in assay [8], in assay [9], in assay [10], in [11] and in assay [12] was 6.00 to 7.00 each time.
Regarding `CCn1c(-c2cccnc2[C@H](C)OC)c2c3cc(ccc31)-c1csc(n1)C[C@H](NC(=O)[C@H](C(C)C)N(C)C(=O)N1CC[C@@H](N(C)C(=O)[C@@H]3CN3)C1)C(=O)N1CCC[C@H](N1)C(=O)OCC(C)(C)C2` (atropisomer, axis not shown) [Example 227], the pIC50 in [1] was 6.00 to 7.00; in [2], 6.00 to 7.00; in [3], 7.00 to 8.00; in assay [4] it was 6.00 to 7.00; in [5] it was 6.00 to 7.00; in assay [6], 6.00 to 7.00. Besides, the pIC50 in [7] was 6.00 to 7.00; in assay [8], 6.00 to 7.00; in assay [9], 7.00 to 8.00; in assay [10], 6.00 to 7.00; in assay [11], 7.00 to 8.00; in assay [12], 6.00 to 7.00.
As for `CCn1c(-c2cccnc2[C@H](C)OC)c2c3cc(ccc31)-c1csc(n1)C[C@H](NC(=O)[C@H](C(C)C)N(C)C(=O)N1CC[C@H](N(C)C(=O)[C@H]3CN3)C1)C(=O)N1CCC[C@H](N1)C(=O)OCC(C)(C)C2` (atropisomer, axis not shown) [Example 228], the pIC50 in assay [1] is 6.00 to 7.00; in [2] it was 5.00 to 6.00; in [3], 7.00 to 8.00; in assay [4], 6.00 to 7.00; in assay [5], 6.00 to 7.00; in assay [6], 6.00 to 7.00. In addition, the pIC50 is 6.00 to 7.00 in assay [7]; 6.00 to 7.00 in assay [8]; 7.00 to 8.00 in assay [9]; 6.00 to 7.00 in [10]; 7.00 to 8.00 in [11]; 6.00 to 7.00 in assay [12].
Consider `CCn1c(-c2cccnc2[C@H](C)OC)c2c3cc(ccc31)-c1csc(n1)C[C@H](NC(=O)[C@H](C(C)C)N(C)C(=O)N1CC[C@H](N(C)C(=O)[C@@H]3CN3)C1)C(=O)N1CCC[C@H](N1)C(=O)OCC(C)(C)C2` (atropisomer, axis not shown) [Example 229], for which the pIC50 in assay [1] was 6.00 to 7.00; in assay [2] it was 5.00 to 6.00; in [3], 6.00 to 7.00; in [4], 6.00 to 7.00; in assay [5], 6.00 to 7.00; in assay [6], 6.00 to 7.00. Further, the pIC50 in assay [7] is 6.00 to 7.00; in assay [8], 6.00 to 7.00; in assay [9], 7.00 to 8.00; in assay [10] it was 6.00 to 7.00; in assay [11], 7.00 to 8.00; in assay [12] it was 6.00 to 7.00.
Consider `CCn1c(-c2cccnc2[C@H](C)OC)c2c3cc(ccc31)-c1cc(O)cc(c1)C[C@H](NC(=O)[C@H](C(C)C)N(C)C(=O)[C@@H]1CCCN(C(=O)[C@H]3CN3)C1)C(=O)N1CCC[C@H](N1)C(=O)OCC(C)(C)C2` (atropisomer, axis not shown) [Example 237], for which the pIC50 was 7.00 to 8.00 in assay [1]; 6.00 to 7.00 in assay [2]; 7.00 to 8.00 in [3]; 7.00 to 8.00 in assay [4]; 6.00 to 7.00 in assay [5]; 7.00 to 8.00 in assay [6]. Also, the pIC50 in assay [7] was 7.00 to 8.00; in [8], 6.00 to 7.00; in assay [9], 6.00 to 7.00; in [10], 6.00 to 7.00; in assay [11], 7.00 to 8.00; in assay [12] it was 7.00 to 8.00.

(Values after patent US20230233569A1 (Revolution Medicines, Inc., priority 2020, published 2023).)
